Results from paper PMC7753147, “High-throughput determination of protein affinities using unmodified peptide libraries in nanomolar scale” (iScience, 2020).

Key:
[1] = tested on: native geph; experiment: µSPOT peptide microarray binding assay with native geph from mouse brain lysate
[2] = tested on: FL-geph; experiment: µSPOT peptide microarray binding assay with full-length geph
[3] = tested on: gephE; experiment: µSPOT peptide microarray binding assay with recombinant gephE
[4] = µSPOT peptide microarray, GlyRβ full positional scan, native geph from mouse brain lysate, intensity normalised to wild-type sequence DLRSNDFSIVGSLPR (=1)
[5] = µSPOT peptide microarray, GlyRβ full positional scan, intensity normalised to wild-type sequence DLRSNDFSIVGSLPR (=1)
[6] = µSPOT peptide microarray, GlyRβ full positional scan, recombinant gephE, intensity normalised to wild-type sequence DLRSNDFSIVGSLPR (=1)
[7] = µSPOT full positional scan of GlyRβ 15-mer DLRSNDFSIVGSLPR, native geph, intensity normalised to wild-type sequence (= 1)
[8] = µSPOT full positional scan of GlyRβ 15-mer DLRSNDFSIVGSLPR, intensity normalised to wild-type sequence (= 1)

| Native geph Binding Intensity [norm.] [1, 4] | Fl-geph Binding Intensity [norm.] [2, 5] | gephE Binding Intensity [norm.] [3, 6] | Native geph Binding Intensity [norm.] [1, 7] | Fl-geph Binding Intensity [norm.] [2, 8] | gephE Binding Intensity [norm.] [3, 8] | Sequence |
| --- | --- | --- | --- | --- | --- | --- |
| 0.31 norm. | 0.95 norm. | 0.53 norm. |  |  |  | DLRSNDFSTVGSLPR [GlyRβ_Full_Positional_Scan_176, GlyR β 414-428 variant I422T] |
| 0.72 norm. | 1.16 norm. | 1.1 norm. |  |  |  | PLRSNDFSIVGSLPR [GlyRβ_Full_Positional_Scan_005] |
| 0.53 norm. | 0.78 norm. | 0.95 norm. |  |  |  | DLRSNQFSIVGSLPR [GlyRβ_Full_Positional_Scan_120] |
|  |  |  | 1.11 norm. | 1.05 norm. | 1.05 norm. | DLRSNDFSIVGSLPL [GlyRβ_Full_Positional_Scan_284] |
|  |  |  | 0.44 norm. | 0.77 norm. | 0.6 norm. | DLRSNDFSIVGSLMR [GlyRβ_Full_Positional_Scan_278] |
| 0.98 norm. | 0.95 norm. | 0.91 norm. |  |  |  | DHRSNDFSIVGSLPR [GlyRβ_Full_Positional_Scan_033] |
| 1.04 norm. | 0.98 norm. | 0.89 norm. |  |  |  | DLRQNDFSIVGSLPR [GlyRβ_Full_Positional_Scan_080] |
| 0.92 norm. | 0.94 norm. | 0.98 norm. |  |  |  | DGRSNDFSIVGSLPR [GlyRβ_Full_Positional_Scan_022] |
| 0.64 norm. | 0.8 norm. | 0.81 norm. |  |  |  | DLRSNCFSIVGSLPR [GlyRβ_Full_Positional_Scan_117] |
|  |  |  | 0.66 norm. | 0.91 norm. | 0.69 norm. | DLRSNDFSIVGSGPR [GlyRβ_Full_Positional_Scan_242] |
| 0.79 norm. | 0.85 norm. | 1.16 norm. |  |  |  | TLRSNDFSIVGSLPR [GlyRβ_Full_Positional_Scan_016] |
|  |  |  | 1.09 norm. | 0.74 norm. | 0.87 norm. | DLRSNDFSIVGSLPY [GlyRβ_Full_Positional_Scan_289] |
|  |  |  | 1.42 norm. | 1.34 norm. | 0.9 norm. | DLRSNDFSIVGSLPM [GlyRβ_Full_Positional_Scan_298] |
| 1.09 norm. | 0.97 norm. | 0.94 norm. |  |  |  | DTRSNDFSIVGSLPR [GlyRβ_Full_Positional_Scan_036] |
| 0.14 norm. | 0.18 norm. | 0.23 norm. |  |  |  | DLRSNDFSIVESLPR [GlyRβ_Full_Positional_Scan_211, GlyR β 414-428 variant G424E] |
| 1.3 norm. | 1.13 norm. | 0.95 norm. |  |  |  | DLASNDFSIVGSLPR [GlyRβ_Full_Positional_Scan_041] |
| 0.36 norm. | 0.51 norm. | 0.47 norm. |  |  |  | DLRSNDTSIVGSLPR [GlyRβ_Full_Positional_Scan_136, GlyR β 414-428 variant F420T] |
| 0.68 norm. | 0.76 norm. | 0.89 norm. |  |  |  | DLRSYDFSIVGSLPR [GlyRβ_Full_Positional_Scan_089] |
| 0.34 norm. | 0.78 norm. | 0.74 norm. |  |  |  | DLRSNFFSIVGSLPR [GlyRβ_Full_Positional_Scan_107] |
| 0.2 norm. | 0.32 norm. | 0.42 norm. |  |  |  | DLRSNDESIVGSLPR [GlyRβ_Full_Positional_Scan_131, GlyR β 414-428 variant F420E] |
| 0.97 norm. | 0.94 norm. | 1.1 norm. |  |  |  | ELRSNDFSIVGSLPR [GlyRβ_Full_Positional_Scan_011] |
| 1.2 norm. | 1.16 norm. | 1.19 norm. |  |  |  | QLRSNDFSIVGSLPR [GlyRβ_Full_Positional_Scan_020] |
| 0.17 norm. | 0.42 norm. | 0.43 norm. |  |  |  | DLRSNDFSIVVSLPR [GlyRβ_Full_Positional_Scan_206, GlyR β 414-428 variant G424V] |
| 0.32 norm. | 0.53 norm. | 0.57 norm. |  |  |  | DLRSNDFSQVGSLPR [GlyRβ_Full_Positional_Scan_180, GlyR β 414-428 variant I422Q] |
| 0.35 norm. | 0.79 norm. | 0.55 norm. |  |  |  | DLRSNDFAIVGSLPR [GlyRβ_Full_Positional_Scan_141, GlyR β 414-428 variant S421A] |
| 0.77 norm. | 1.11 norm. | 1.06 norm. |  |  |  | ALRSNDFSIVGSLPR [GlyRβ_Full_Positional_Scan_001] |
|  |  |  | 0.49 norm. | 0.95 norm. | 0.65 norm. | DLRSNDFSIVGSLIR [GlyRβ_Full_Positional_Scan_263] |
| 0.18 norm. | 0.56 norm. | 0.34 norm. |  |  |  | DLRSNDFSIVASLPR [GlyRβ_Full_Positional_Scan_201, GlyR β 414-428 variant G424A] |
